In patent US20250073351A1, “IMPROVED COMPOSITIONS FOR DELIVERY OF MRNA” (TRANSLATE BIO, INC., priority 2021, published 2025):

These molecules were tested on lungs of mice (assay: In vivo screen of cationic lipids for pulmonary delivery of FFL mRNA-LNP (IVIS imaging)). Details: LNP with DOPE, DMG-PEG2K, optionally cholesterol; about 5 hours post-dose.
Method: In this example, various cationic lipids were tested for in Wvo efficacy when mRNA encapsulated in lipid nanoparticles (mRNA-LNP) were administered to mice by pulmonary delivery. The cationic lipids were tested for both potency, as determined by levels of protein production, and tolerability, as determined by side effects associated with clearance and metabolism.
About 150 cationic lipids were tested. (FIG. 16). Each cationic lipid was used in preparing lipid nanoparticles encapsulating mRNA encoding firefly luciferase protein (FFL mRNA) according to methods known in the art. For example, suitable methods for mRNA encapsulation include methods described in International Publication Nos. WO2016/004318 and WO 2018/089801, which are hereby incorporated by reference in their entirety. The tested lipid nanoparticles comprised a lipid component consisting of a cationic lipid, a non-cationic lipid (DOPE), a PEG-modified lipid (DMG-PEG2K), and optionally cholesterol.
Lipid nanoparticle formulations comprising FFL mRNA were administered to mice. At approximately 5 hours post-dose, the animals were dosed with luciferin by intraperitoneal injection and all animals were imaged using an IVIS imaging system to measure luciferase production in the lung. […] Some cationic lipids remarkably had greater than 50-fold increase in pulmonary protein expression as compared to other cationic lipids.
In the case of `CCCCC/C=C\C/C=C\CCCCCCCC(=O)OCC(COC(=O)CCCCCCC/C=C\C/C=C\CCCCC)(COC(=O)CCCCCCC/C=C\C/C=C\CCCCC)NCCS(=O)(=O)NCCCN(C)C` [GL-TES-SA-DMP-E18-2], the “potency as determined by the average radiance detected in mouse lungs” value (from here on “potency as determined”) is reported as “particularly high potency”.
In the case of `CCCCCCCCCCCCCCOC(=O)CC(CC(=O)OCCCCCCCCCCCCCC)(OC(=O)CCN(C)C)C(=O)OCCCCCCCCCCCCCC` [TL1-04D-DMA], the “potency as determined” value is reported as “particularly high potency”.
`CCCCCCCCC(O)CN(CCCCC(=O)OCCN1CC(C)N(CCOC(=O)CCCCN(CC(O)CCCCCCCC)CC(O)CCCCCCCC)CC1C)CC(O)CCCCCCCC` (stereo not drawn) [HEP-E4-E10] was tested, and the “potency as determined” value was “particularly high potency”.
For `CCCCCCCCC(O)CN(CCCC(=O)OCCN1CC(C)N(CCOC(=O)CCCN(CC(O)CCCCCCCC)CC(O)CCCCCCCC)CC1C)CC(O)CCCCCCCC` (stereo not drawn) [HEP-E3-E10], the “potency as determined” value was “particularly high potency”.
With `CCCCC/C=C\C/C=C\CCCCCCCC(=O)OCC(COC(=O)CCCCCCC/C=C\C/C=C\CCCCC)(COC(=O)CCCCCCC/C=C\C/C=C\CCCCC)NCCS(=O)(=O)NCCN(C)C` [GL-TES-SA-DME-E18-2, 2-((2-(N-(2-(dimethylamino)ethyl)sulfamoyl)ethyl)amino)-2-((((9Z,12Z)-octadeca-9,12-dienoyl)oxy)methyl)propane-1,3-diyl (9Z,9′Z,12Z,12′Z)-bis(octadeca-9,12-dienoate)] the “potency as determined” value was “particularly high potency”.
`CCCCCCCCOC(=O)CC(CC(=O)OCCCCCCCC)(OC(=O)CCN(C)C)C(=O)OCCCCCCCC` [TL1-01D-DMA, trioctyl 2-((3-(dimethylamino)propanoyl)oxy)propane-1,2,3-tricarboxylate] was tested, and the “potency as determined” value was “particularly high potency”.
